Source: US4465668A, “Method for improving intestinal absorption of cephalosporin derivatives” (Asahi Kasei Kogyo Kabushiki Kaisha, priority 1981, dated 1984)
Blank lines part the entries; values can stand above or below the compound they belong to.

Test: Absorption test: blood concentration after oral administration to rats
Details: rat; for Blood Concentration of Compound (V) / Blood Concentration of Compound (IX) / Blood Concentration of Compound (VII) / Blood Concentration of Compound (III) / Blood Concentration of Compound (IV) / Blood Concentration of Compound (VI) / Blood Concentration of Compound (VIII): suspended in 0.7% CMC; for Blood Concentration of Compound (V) / Blood Concentration of Compound (IX) / Blood Concentration of Compound (VII) / Blood Concentration of Compound (III) / Blood Concentration of Compound (II) / Blood Concentration of Compound (IV) / Blood Concentration of Compound (VI) / Blood Concentration of Compound (VIII): group average; for Blood concentration of Compound (I): suspended in 0.7% CMC aqueous solution, group average (5 animals); for Blood Concentration of Compound (II): dissolved in buffer aqueous solution pH 7
Method: The absorption test of the compounds were measured by the following methods.
Male Wistar rats weighing 180-250 g were fed with only water overnight. The next day the rats were orally administered with 50 mg/kg of a test compound which was suspended in a 0.7% CMC aqueous solution. The concentration of the compound in blood of the tested animals (one group consisting of 5 animals) was measured 0.5, 1, 2 and 4 hours after the administration by Bioassay method by using Bacillus subtilis ATCC 6633 strain as an indicator bacteria. In the measurement, an ordinary culture medium was employed, and the preparation of the standard solution and other method were carried out in according to Japanese Antibiotical Pharmaceutical Standards. Further, the concentration of the compound in blood was also measured by high performance liquid chromatography. The blood concentration shown in the examples was an average value of each animal group.
The absorption test of 7-[2-(2-thienyl)-acetoamido]-3-[2-(L-prolyl-L-lysylaminomethyl-1,3,4-thiadiazolyl)-thiomethyl]-3-cephem-4-carboxylic acid formic acid salt was carried out by orally administering the salt which was dissolved in a buffer aqueous solution having the pH of 7. The results are as follows:
The same procedures as described in Example 8 were repeated except that other oligopeptides were employed instead of the α-tert-butyloxycarbonyl-L-prolyl-ε-tert-butyloxycarbonyl-L-lysine. The absorption test of these compounds thus obtained was carried out in the same manner as described in Example 8.

Structure (SMILES): CO/N=C(\C(=O)N[C@@H]1C(=O)N2C(C(=O)O)=C(COC(C)=O)CS[C@H]12)c1csc(NC(=O)[C@H](Cc2ccccc2)NC(=O)[C@@H](N)CC(C)C)n1.O=CO [Example 22, 7β-[2-(2-L-leucyl-L-phenylalanylamidothiazol-4-yl)-(Z)-2-methoxyiminoacetoamido]cephalosporanic acid formic acid salt]
Blood Concentration of Compound (V) (0.5 hr after oral 50 mg/kg): 1690 ng/mL
Blood Concentration of Compound (V) (1 hr after oral 50 mg/kg): 1830 ng/mL
Blood Concentration of Compound (V) (2 hrs after oral 50 mg/kg): 1530 ng/mL
Blood Concentration of Compound (V) (4 hrs after oral 50 mg/kg): 1030 ng/mL

Blood Concentration of Compound (IX) (0.5 hr after oral 50 mg/kg): 5640 ng/mL
Blood Concentration of Compound (IX) (1 hr after oral 50 mg/kg): 3840 ng/mL
Blood Concentration of Compound (IX) (2 hrs after oral 50 mg/kg): 1870 ng/mL
Blood Concentration of Compound (IX) (4 hrs after oral 50 mg/kg): 740 ng/mL
Structure (SMILES): Cc1nnc(SCC2=C(C(=O)OCOC(=O)[C@H](CCCCN)NC(=O)[C@@H](N)CC(C)C)N3C(=O)C(NC(=O)Cn4cnnn4)C3SC2)s1.Cl (stereo partly drawn) [Example 35, 7-[1-(1H)-tetrazolylacetamido]-3-[2-(5-methyl-1,3,4-thiazolyl)-thiomethyl]-3-cephem-4-carboxylic acid L-leucyl-L-lysyloxymethyl ester hydrochloric acid salt]

Structure (SMILES): Cn1nnnc1SCC1=C(C(=O)O)N2C(=O)C(NC(=O)[C@H](OC(=O)[C@@H](N)Cc3ccccc3)c3ccccc3)C2SC1.O=CO (stereo partly drawn) [compound 1, 7-D-(O-L-phenylalanyl)-mandelamido-3-(1-methyl-1H-tetrazol-5-yl-thiomethyl)-3-cephem-4-carboxylic acid formic acid salt, reference compound]
Blood concentration of Compound (I) (0.5 hr after oral 50 mg/kg): 210 ng/mL
Blood concentration of Compound (I) (1 hr after oral 50 mg/kg): 230 ng/mL
Blood concentration of Compound (I) (2 hrs after oral 50 mg/kg): 80 ng/mL
Blood concentration of Compound (I) (4 hrs after oral 50 mg/kg): 20 ng/mL

Structure (SMILES): CO/N=C(\C(=O)N[C@@H]1C(=O)N2C(C(=O)O)=CCS[C@H]12)c1csc(NC(=O)[C@H](Cc2ccccc2)NC(=O)[C@@H](N)CCSC)n1.O=CO [Example 27, 7β-[2-(2-L-methionyl-L-phenylalanylamidothiazol-4-yl)-(Z)-2-methoxyiminoacetamido]-3-cephem-4-carboxylic acid formic acid salt]
Blood Concentration of Compound (VII) (0.5 hr after oral 50 mg/kg): 2130 ng/mL
Blood Concentration of Compound (VII) (1 hr after oral 50 mg/kg): 1840 ng/mL
Blood Concentration of Compound (VII) (2 hrs after oral 50 mg/kg): 1000 ng/mL
Blood Concentration of Compound (VII) (4 hrs after oral 50 mg/kg): 210 ng/mL

Blood Concentration of Compound (III) (0.5 hr after oral 50 mg/kg): 1960 ng/mL
Blood Concentration of Compound (III) (1 hr after oral 50 mg/kg): 2370 ng/mL
Blood Concentration of Compound (III) (2 hrs after oral 50 mg/kg): 1030 ng/mL
Blood Concentration of Compound (III) (4 hrs after oral 50 mg/kg): 240 ng/mL
Structure (SMILES): Cc1nnc(SCC2=C(C(=O)OCOC(=O)[C@H](CCCCN)NC(=O)[C@@H](N)CC(C)C)N3C(=O)C(NC(=O)Cc4csc(N)n4)C3SC2)s1.Cl (stereo partly drawn) [Example 15, 7-[2-(2-amino-4-thiazolyl)acetoamido-3-(5-methyl-1,3,4-thiadiazolyl)thiomethyl]-3-cephem-4-carboxylic acid L-leucyl-L-lysyloxymethyl ester hydrochloric acid salt]

Structure (SMILES): NCCCC[C@H](NC(=O)[C@@H]1CCCN1)C(=O)NCc1nnc(SCC2=C(C(=O)O)N3C(=O)C(NC(=O)Cc4cccs4)C3SC2)s1.O=CO (stereo partly drawn) [Example 8, 7-[2-(2-thienyl)-acetoamido]-3-[2-(L-prolyl-L-lysylaminomethyl-1,3,4-thiadiazolyl)-thiomethyl]-3-cephem-4-carboxylic acid formic acid salt]
Blood Concentration of Compound (II) (0.5 hr after oral 50 mg/kg): 2140 ng/mL
Blood Concentration of Compound (II) (1 hr after oral 50 mg/kg): 1770 ng/mL
Blood Concentration of Compound (II) (2 hrs after oral 50 mg/kg): 1040 ng/mL
Blood Concentration of Compound (II) (4 hrs after oral 50 mg/kg): 70 ng/mL

Structure (SMILES): CC(C)C[C@H](N)C(=O)N[C@@H](Cc1ccccc1)C(=O)OC(C(=O)NC1C(=O)N2C(C(=O)O)=C(CSc3nnnn3C)CS[C@H]12)c1ccccc1.O=CO (stereo partly drawn) [Example 1, 7-D-(O-L-leucyl-L-phenylalanyl)-mandelamido-3-(1-methyl-1H-tetrazol-5-yl-thiomethyl)-3-cephem-4-carboxylic acid formic acid salt]
Blood concentration of Compound (I) (0.5 hr after oral 50 mg/kg): 4510 ng/mL
Blood concentration of Compound (I) (1 hr after oral 50 mg/kg): 3700 ng/mL
Blood concentration of Compound (I) (2 hrs after oral 50 mg/kg): 1930 ng/mL
Blood concentration of Compound (I) (4 hrs after oral 50 mg/kg): 830 ng/mL

Structure (SMILES): CC(=O)OCC1=C(C(=O)O)N2C(=O)[C@@H](NC(=O)CSCCNC(=O)[C@H](CC(C)C)NC(=O)[C@@H](N)Cc3ccccc3)[C@H]2SC1.O=C(O)C(F)(F)F [Example 19, 7β-(2-L-phenylalanyl-L-leucylamidoethylthioacetoamido)-3-acetoxymethyl-3-cephem-4-carboxylic acid trifluoroacetic acid salt]
Blood Concentration of Compound (IV) (0.5 hr after oral 50 mg/kg): 1070 ng/mL
Blood Concentration of Compound (IV) (1 hr after oral 50 mg/kg): 210 ng/mL
Blood Concentration of Compound (IV) (2 hrs after oral 50 mg/kg): 90 ng/mL
Blood Concentration of Compound (IV) (4 hrs after oral 50 mg/kg): < 10 ng/mL

Blood Concentration of Compound (VI) (0.5 hr after oral 50 mg/kg): 2110 ng/mL
Blood Concentration of Compound (VI) (1 hr after oral 50 mg/kg): 1670 ng/mL
Blood Concentration of Compound (VI) (2 hrs after oral 50 mg/kg): 1100 ng/mL
Blood Concentration of Compound (VI) (4 hrs after oral 50 mg/kg): < 100 ng/mL
Structure (SMILES): CO/N=C(\C(=O)N[C@@H]1C(=O)N2C(C(=O)O)=C(CSc3nnnn3C)CS[C@H]12)c1csc(NC(=O)[C@H](CCCCN)NC(=O)[C@@H](N)CC(C)C)n1.O=CO [Example 25, 7β-[2-(2-L-leucyl-L-lysylamidothiazol-4-yl)-(Z)-2-methoxyiminoacetoamido]-3-[(1-methyl-1H-tetrazol-5-yl)-thiomethyl]-3-cephem-4-carboxylic acid formic acid salt]

Blood Concentration of Compound (VIII) (0.5 hr after oral 50 mg/kg): 3140 ng/mL
Blood Concentration of Compound (VIII) (1 hr after oral 50 mg/kg): 2370 ng/mL
Blood Concentration of Compound (VIII) (2 hrs after oral 50 mg/kg): 1040 ng/mL
Blood Concentration of Compound (VIII) (4 hrs after oral 50 mg/kg): 320 ng/mL
Structure (SMILES): COC1(NC(=O)CSCC#N)C(=O)N2C(C(=O)OCOC(=O)[C@H](CCCCN)NC(=O)[C@@H](N)CC(C)C)=C(CSc3nnnn3C)CSC21.Cl (stereo partly drawn) [Example 29, 7β-[(cyanomethyl)thio]acetoamido-7α-methoxy-3-[(1-methyl-1H-tetrazol-5-yl)thio]methyl-3-cephem-4-carboxylic acid L-leucyl-L-lysyloxymethyl ester hydrochloric acid salt]
